Results reported in patent publication US20070023364A1, “Tetrasilver Tetraoxide as Disinfective Agent for Cryptosporidium” (priority 2005, published 2007).
Values joined by “and” are separate entries in the source; they are usually repeats but may differ in a detail not shown here. Identical values can stand only once. Like-named read-outs stand apart in the source and are kept apart here.

Columns and labels:
Cryptosporidium oocysts = assay: Iodine exposure of Cryptosporidium oocysts (killing); format: cell-based; conditions: iodine up to 100 ppm (saturation level), 30 and 60 min exposure
Protocol: (§1) Test studies confirmed these observations using doses of 5 and 15 ppm of iodine against three waterborne pathogens (Escherichia coli, Enterococcus faecalis and Pseudomonas aeruginosa). […] Unfortunately, experiments using iodine even up to 100 ppm (saturation level) were ineffective in killing Cryptosporidium oocysts when exposed for 30 and 60 min. periods, respectively.

[1] = test system: Cryptosporidium parvum oocysts
Description: Excystation, i.e., the release of sporozoites from the oocysts, was used to assess viability of the Cryptosporidium samples. COREXIT is 2-butoxyethanol (ethyleneglycol monobutyl ether), butyl cellosolve, butyl glycol, glycol ether eb. Other ethers similar to ethyleneglycol monobutyl ether may be used. This dispersant is composed of about 48% nonionic surfactants, including ethoxylated sorbitan mono- and trioleates (Tween 80 and Tween 85) and sorbitan monooleate (Span 80), about 35% anionic surfactants, including sodium dioctyl sulfosuccinate (AOT), and about 17% ethylene glycol monobutyl ether as a solvent EMULPHOR is an emulsifier derivative of corn oil. EMULPHOR may also be used rather than ALKAMUS. ALKAMUS is a polyethoxylated castor oil 40 mole ethoxlate. EMULPHOR from BASF, is a high molecular weight ether sulphate.

[2] = test system: Escherichia coli, Enterococcus faecalis and Pseudomonas aeruginosa; assay: Iodine disinfection of waterborne bacterial pathogens; format: cell-based; conditions: 5 ppm iodine
Protocol: as §1

Cryptosporidium = conditions: ozone-exposed Cryptosporidium, accepted by USEPA; cited from earlier work
E. coli = conditions: activated TTO, kill within 10 min or less; cited from earlier work
[3] = activated tetrasilver tetraoxide; cited from earlier work
[4] = test system: Cryptosporidium parvum oocysts; remark: listed apart in the source
Protocol: Disinfection was assessed using cell culture infectivity as the test, this procedure being more definitive than excystation. […] The 90% inactivation is a Log10 reduction of 1.0.
Infectivity in cell cultures was used in this study. Although excystation is an acceptable way to assay for live sporozoites, infectivity in cell cultures is a definitive assay generally accepted by the scientific community for assessing Cryptosporidium oocyst viability/non-viability. This assay is virtually equivalent to using living mammals to confirm infectious organisms, but it provides better quantitation of viable/infectious organisms.

aquatic species = conditions: USEPA scientific findings; cited from earlier work
avian species = conditions: USEPA scientific findings; cited from earlier work
[5] = 2 ppm tetrasilver tetraoxide and 10 ppm potassium monopersulfate, excystation
[6] = 3 mg/L TTO, 15 mg/L persulfate, 1% cocktail, 60 min
[7] = 2 and 3 mg/L activated TTO, irrespective of cocktail used
[8] = activated 2 mg/L TTO in 1.0% cocktail, 60 min (study with 2, 5, 10 mg/L)

For II [iodine], the “killing of Cryptosporidium oocysts” value (Cryptosporidium oocysts) was “ineffective”, the inactivation of oocysts ([1]; saturated iodine solution with 1% cocktail of COREXIT and ALKAMUS EL 620, 3 hours) was “ineffective” and the log10 reduction ([2]; within 5 min) was 6 log10. The log10 inactivation ([2]; within 10 min of exposure) was ≤ 8 log10.
In the case of O=[O+][O-] [ozone], the “Log10 reduction” value (Cryptosporidium) is given as 2.0 Log 10.
In the case of [Ag+].[Ag+].[Ag+].[Ag+].[O-2].[O-2].[O-2].[O-2] [tetrasilver tetraoxide], the “concentration that kills the organisms” value (E. coli) is given as 1-2 ppm, the inactivation of oocysts ([1]; 1% cocktail, 3 hours, 1×10^3 oocysts in 50 ml HMEM) is given as 19.4% and the “viable oocysts by excystation” value ([1]; 2 ppm tetrasilver tetraoxide and 10 ppm potassium monopersulfate) is given as 1.2+/−1.1%. The kill [1, 5] was 98.8%, the “log10 reduction in infectious Cryptosporidium parvum” value [1, 5] was 2 log10 and 2.0 log10 and the mutagenicity [3] was “not mutagenic”. The “Average Infectious Oocysts × 100,000” value ([4]; 1 mg/L TTO) was 68 × 100,000, the “Average Log10 Reduction of Viable Oocysts (Inactivation)” value (from here on “Average Log10 Reduction”) ([4]; 1 mg/L TTO) was 0.23 Log10 and the “Average Percent Oocyst Inactivation of all Variables” value (from here on “Average Percent Oocyst Inactivation”) ([4]; 1 mg/L TTO) was 32.0%. For the same molecule, the Log10 reduction ([4]; 1 mg/L TTO, 0% cocktail, 60 min) was 0.6 Log10, the inactivation ([4]; 1 mg/L TTO, 0% cocktail, 60 min, 1.2×10^7 oocysts/50 mL) was 75% and the “Infectious Oocysts × 100,000 using 1% Cocktail” value ([4]; 1 mg/L TTO, 5 mg/L persulfate, 1% cocktail) was 100 × 100,000. For the same molecule, the “Average Infectious Oocysts × 100,000” value ([4]; 2 mg/L TTO) was 35 × 100,000, the “Average Log10 Reduction” value ([4]; 2 mg/L TTO) was 0.83 Log10 and the “Average Percent Oocyst Inactivation” value ([4]; 2 mg/L TTO) was 65.0%. The “Infectious Oocytes × 100,000 using 0% Cocktail” value ([4]; 2 mg/L TTO, 10 mg/L persulfate, 0% cocktail) was 2 × 100,000, the Log10 reduction ([4]; 2 mg/L TTO, 10 mg/L persulfate, 0% cocktail, 60 min) was 1.8 Log10 and the “Infectious Oocysts × 100,000 using 1% Cocktail” value ([4]; 2 mg/L TTO, 10 mg/L persulfate, 1% cocktail) was 35 × 100,000. The “Average Infectious Oocysts × 100,000” value ([4]; 3 mg/L TTO) was 13 × 100,000, the “Average Log10 Reduction” value ([4]; 3 mg/L TTO) was 1.2 Log10 and the “Average Percent Oocyst Inactivation” value ([4]; 3 mg/L TTO) was 87.0%. The Log10 reduction ([4]; 3 mg/L TTO, 0% cocktail, 60 min) was 1.3 Log10, the “Infectious Oocysts × 100,000 using 1% Cocktail” value ([4]; 3 mg/L TTO, 15 mg/L persulfate, 1% cocktail) was 2 × 100,000 and the Log10 oocyst reduction [4, 6] was 1.8 Log10. The “inactivation / kill of oocysts” value [4, 6] was 98%, the “effectiveness of inactivation with cocktail versus average inactivation of infectious oocysts” value ([4]; 3 mg/L TTO, cocktail present) was 6.5 times and the Log10 reduction [4, 7] was 1.8 Log10. The kill of oocysts [4, 7] was 98%, the Log10 reduction [4, 8] was 1.0 Log10 and the “oocyst inactivation relative to stock oocyst control” value [4, 8] was 90%. For the same molecule, the inactivation ([4]; cocktail concentration raised to 2%, 60 min) was “Lesser, but significant inactivations”, the Log10 reduction/inactivation ([4]; other test matrices (2, 5, 10 mg/L, with and without 1% cocktail), 60 min) was “less than a one Log10 reduction/inactivation” and the “toxicity to aquatic species” value (aquatic species) was “toxic”. For the same molecule, the “toxicity to avian species” value (avian species) was “practically non-toxic”.
